{"source": "paper PMC4984408", "about": "(ChemistryOpen, 2016)", "key": {"[1]": {"system": "dengue viruses (DENV, serotype D2)", "type": "cell-based, dengue virus"}, "[2]": {"system": "yellow fever (YFV, 17 D strain of ASIBI)", "type": "cell-based, yellow fever virus"}}, "note": "Where two headings read alike, the source gives them in different places."}
{"smiles": "NC(=O)c1ncn([C@@H]2O[C@H](COC(c3ccccc3)(c3ccccc3)c3ccccc3)[C@@H](OC(c3ccccc3)(c3ccccc3)c3ccccc3)[C@H]2O)n1", "note": "[5 B, 5′,3′‐bis‐O‐tritylribavirin]", "values": [{"measurement": "D2 inhibition [% Cells alive]", "setting": "[1]; 5 μM", "value": 0, "unit": "% Cells alive"}, {"measurement": "D2 inhibition [% Cells alive]", "setting": "[1]; 10 μM", "value": 0, "unit": "% Cells alive"}, {"measurement": "YFV inhibition [% Cells alive]", "setting": "[2]; 5 μM", "value": 0, "unit": "% Cells alive"}, {"measurement": "YFV inhibition [% Cells alive]", "setting": "[2]; 10 μM", "value": 0, "unit": "% Cells alive"}, {"measurement": "YFV inhibition [% Cells alive]", "setting": "[2]; 20 μM", "value": 0, "unit": "% Cells alive"}, {"measurement": "CC50", "setting": "Vero cells", "value": "> 20", "unit": "µM"}]}
{"smiles": "O=c1[nH]c(=O)n([C@@H]2O[C@H](COC(c3ccccc3)(c3ccccc3)c3ccccc3)[C@@H](O)[C@H]2O)cc1F", "note": "[6 D, 5′‐O‐trityl‐5‐fluorouridine]", "values": [{"measurement": "anti-DENV activity (in words)", "setting": "[1]", "value": "no inhibitory properties"}, {"measurement": "D2 inhibition [% Cells alive]", "setting": "[1]; 5 μM", "value": 0, "unit": "% Cells alive"}, {"measurement": "D2 inhibition [% Cells alive]", "setting": "[1]; 10 μM", "value": 0, "unit": "% Cells alive"}, {"measurement": "D2 inhibition [% Cells alive]", "setting": "[1]; 20 μM", "value": 0, "unit": "% Cells alive"}, {"measurement": "YFV inhibition [% Cells alive]", "setting": "[2]; 5 μM", "value": 0, "unit": "% Cells alive"}, {"measurement": "YFV inhibition [% Cells alive]", "setting": "[2]; 10 μM", "value": 0, "unit": "% Cells alive"}]}
{"smiles": "COc1ccc(C(OC[C@H]2O[C@@H](n3cc(F)c(=O)[nH]c3=O)[C@H](O)[C@@H]2O)(c2ccccc2)c2ccc(OC)cc2)cc1", "note": "[6 H, 5′‐O‐dimethoxytrityl‐5‐fluorouridine]", "values": [{"measurement": "D2 inhibition [% Cells alive]", "setting": "[1]; 5 μM", "value": 0, "unit": "% Cells alive"}, {"measurement": "D2 inhibition [% Cells alive]", "setting": "[1]; 10 μM", "value": 0, "unit": "% Cells alive"}, {"measurement": "D2 inhibition [% Cells alive]", "setting": "[1]; 20 μM", "value": 0, "unit": "% Cells alive"}, {"measurement": "YFV inhibition [% Cells alive]", "setting": "[2]; 5 μM", "value": "9.22±0.46", "unit": "% Cells alive"}, {"measurement": "YFV inhibition [% Cells alive]", "setting": "[2]; 10 μM", "value": "30.89±1.85", "unit": "% Cells alive"}, {"measurement": "CC50", "setting": "Vero cells", "value": "> 20", "unit": "µM"}]}
{"smiles": "COc1ccc(C(OC[C@H]2O[C@@H](n3ccc(=O)[nH]c3=O)[C@H](O)[C@@H]2O)(c2ccccc2)c2ccc(OC)cc2)cc1", "note": "[9 H, 5′‐O‐Dimethoxytrityluridine]", "values": [{"measurement": "D2 inhibition [% Cells alive]", "setting": "[1]; 5 μM", "value": 0, "unit": "% Cells alive"}, {"measurement": "D2 inhibition [% Cells alive]", "setting": "[1]; 10 μM", "value": 0, "unit": "% Cells alive"}, {"measurement": "D2 inhibition [% Cells alive]", "setting": "[1]; 20 μM", "value": 0, "unit": "% Cells alive"}, {"measurement": "CC50", "setting": "Vero cells", "value": "> 20", "unit": "µM"}]}
{"smiles": "COc1ccc(C(OCC2OC(n3ccc(NC(C)=O)nc3=O)CS2)(c2ccccc2)c2ccc(OC)cc2)cc1", "note": "(stereo not shown) [12 H, 5′‐O‐Dimetoxytrityl‐N‐acetyl‐lamivudine]", "values": [{"measurement": "D2 inhibition [% Cells alive]", "setting": "[1]; 5 μM", "value": 0, "unit": "% Cells alive"}, {"measurement": "D2 inhibition [% Cells alive]", "setting": "[1]; 10 μM", "value": 0, "unit": "% Cells alive"}, {"measurement": "D2 inhibition [% Cells alive]", "setting": "[1]; 20 μM", "value": 0, "unit": "% Cells alive"}, {"measurement": "YFV inhibition [% Cells alive]", "setting": "[2]; 5 μM", "value": 0, "unit": "% Cells alive"}, {"measurement": "YFV inhibition [% Cells alive]", "setting": "[2]; 10 μM", "value": 0, "unit": "% Cells alive"}, {"measurement": "YFV inhibition [% Cells alive]", "setting": "[2]; 20 μM", "value": "70.45±18.31", "unit": "% Cells alive"}, {"measurement": "CC50", "setting": "Vero cells", "value": "> 20", "unit": "µM"}]}
{"smiles": "O=c1[nH]c(=O)n([C@H]2C[C@H](O)[C@@H](COC(c3ccccc3)(c3ccccc3)c3ccccc3)O2)cc1I", "note": "[14 D, 5′‐O‐Trityl‐5‐iodo‐2′‐deoxyuridine]", "values": [{"measurement": "D2 inhibition [% Cells alive]", "setting": "[1]; 5 μM", "value": 0, "unit": "% Cells alive"}, {"measurement": "D2 inhibition [% Cells alive]", "setting": "[1]; 10 μM", "value": 0, "unit": "% Cells alive"}, {"measurement": "D2 inhibition [% Cells alive]", "setting": "[1]; 20 μM", "value": "2.47±0.06", "unit": "% Cells alive"}, {"measurement": "YFV inhibition [% Cells alive]", "setting": "[2]; 5 μM", "value": 0, "unit": "% Cells alive"}, {"measurement": "YFV inhibition [% Cells alive]", "setting": "[2]; 10 μM", "value": 0, "unit": "% Cells alive"}, {"measurement": "YFV inhibition [% Cells alive]", "setting": "[2]; 20 μM", "value": 0, "unit": "% Cells alive"}]}
{"smiles": "COc1ccc(C(OC[C@H]2O[C@@H](n3cc(F)c(=O)[nH]c3=O)C[C@@H]2O)(c2ccccc2)c2ccc(OC)cc2)cc1", "note": "[15 H, 5′‐O‐dimethoxytrityl‐5‐fluoro‐2′‐deoxyuridine]", "values": [{"measurement": "D2 inhibition [% Cells alive]", "setting": "[1]; 5 μM", "value": 0, "unit": "% Cells alive"}, {"measurement": "D2 inhibition [% Cells alive]", "setting": "[1]; 10 μM", "value": 0, "unit": "% Cells alive"}, {"measurement": "D2 inhibition [% Cells alive]", "setting": "[1]; 20 μM", "value": 0, "unit": "% Cells alive"}, {"measurement": "YFV inhibition [% Cells alive]", "setting": "[2]; 5 μM", "value": 0, "unit": "% Cells alive"}, {"measurement": "CC50", "setting": "Vero cells", "value": "> 20", "unit": "µM"}]}
{"smiles": "O=c1ccn([C@@H]2O[C@H](COC(c3ccccc3)(c3ccccc3)c3ccccc3)[C@@H](O)[C@H]2F)c(=O)[nH]1", "note": "[16 D, 5′‐O‐trityl‐2′‐fluoro‐2′‐deoxyuridine]", "values": [{"measurement": "D2 inhibition [% Cells alive]", "setting": "[1]; 5 μM", "value": 0, "unit": "% Cells alive"}, {"measurement": "D2 inhibition [% Cells alive]", "setting": "[1]; 10 μM", "value": 0, "unit": "% Cells alive"}, {"measurement": "YFV inhibition [% Cells alive]", "setting": "[2]; 5 μM", "value": 0, "unit": "% Cells alive"}, {"measurement": "YFV inhibition [% Cells alive]", "setting": "[2]; 10 μM", "value": 0, "unit": "% Cells alive"}, {"measurement": "YFV inhibition [% Cells alive]", "setting": "[2]; 20 μM", "value": 0, "unit": "% Cells alive"}]}
{"smiles": "COc1ccc(C(OC[C@H]2O[C@@H](n3ccc(=O)[nH]c3=O)[C@H](F)[C@@H]2O)(c2ccccc2)c2ccc(OC)cc2)cc1", "note": "[16 H, 5′‐O‐dimethoxytrityl‐2′‐fluoro‐2′‐deoxyuridine]", "values": [{"measurement": "D2 inhibition [% Cells alive]", "setting": "[1]; 5 μM", "value": 0, "unit": "% Cells alive"}, {"measurement": "D2 inhibition [% Cells alive]", "setting": "[1]; 10 μM", "value": 0, "unit": "% Cells alive"}, {"measurement": "D2 inhibition [% Cells alive]", "setting": "[1]; 20 μM", "value": 0, "unit": "% Cells alive"}, {"measurement": "YFV inhibition [% Cells alive]", "setting": "[2]; 5 μM", "value": 0, "unit": "% Cells alive"}, {"measurement": "YFV inhibition [% Cells alive]", "setting": "[2]; 10 μM", "value": 0, "unit": "% Cells alive"}, {"measurement": "CC50", "setting": "Vero cells", "value": "> 20", "unit": "µM"}]}
{"smiles": "Cc1cn([C@@H]2O[C@H](COC(c3ccccc3)(c3ccccc3)c3ccccc3)[C@@H](O)[C@H]2O)c(=O)[nH]c1=O", "note": "[19 D, 5′‐O‐trityl‐5‐methyluridine]", "values": [{"measurement": "anti-DENV activity (in words)", "setting": "[1]", "value": "no inhibitory properties"}, {"measurement": "D2 inhibition [% Cells alive]", "setting": "[1]; 5 μM", "value": 0, "unit": "% Cells alive"}, {"measurement": "D2 inhibition [% Cells alive]", "setting": "[1]; 10 μM", "value": 0, "unit": "% Cells alive"}, {"measurement": "D2 inhibition [% Cells alive]", "setting": "[1]; 20 μM", "value": 0, "unit": "% Cells alive"}, {"measurement": "YFV inhibition [% Cells alive]", "setting": "[2]; 5 μM", "value": 0, "unit": "% Cells alive"}, {"measurement": "YFV inhibition [% Cells alive]", "setting": "[2]; 10 μM", "value": 0, "unit": "% Cells alive"}]}
{"smiles": "O[C@H]1[C@H](O)[C@@H](COC(c2ccccc2)(c2ccccc2)c2ccccc2)O[C@H]1n1cnc2c(NC(c3ccccc3)(c3ccccc3)c3ccccc3)nc(F)nc21", "note": "[20 D‐NHTr, 5′‐O,N‐trityl‐fludarabine]", "values": [{"measurement": "anti-YFV activity (in words)", "setting": "[2]", "value": "devoid of any significant anti‐YFV inhibitory effect"}, {"measurement": "YFV inhibition [% Cells alive]", "setting": "[2]; 5 μM", "value": 0, "unit": "% Cells alive"}, {"measurement": "YFV inhibition [% Cells alive]", "setting": "[2]; 10 μM", "value": 0.28, "unit": "% Cells alive"}, {"measurement": "YFV inhibition [% Cells alive]", "setting": "[2]; 20 μM", "value": 0.84, "unit": "% Cells alive"}, {"measurement": "CC50", "setting": "Vero cells", "value": "> 20", "unit": "µM"}, {"measurement": "cytotoxicity (in words)", "setting": "Vero cells", "value": "no cytotoxicity"}]}
{"smiles": "Cc1cn([C@H]2C[C@H](OC(c3ccccc3)(c3ccccc3)c3ccccc3)[C@@H](COC(c3ccccc3)(c3ccccc3)c3ccccc3)O2)c(=O)[nH]c1=O", "note": "[21 B, 5′,3′‐bis‐O‐trityl‐thymidine]", "values": [{"measurement": "D2 inhibition [% Cells alive]", "setting": "[1]; 5 μM", "value": 0, "unit": "% Cells alive"}, {"measurement": "D2 inhibition [% Cells alive]", "setting": "[1]; 10 μM", "value": 0, "unit": "% Cells alive"}, {"measurement": "D2 inhibition [% Cells alive]", "setting": "[1]; 20 μM", "value": 0, "unit": "% Cells alive"}, {"measurement": "YFV inhibition [% Cells alive]", "setting": "[2]; 5 μM", "value": 0, "unit": "% Cells alive"}, {"measurement": "YFV inhibition [% Cells alive]", "setting": "[2]; 10 μM", "value": 0, "unit": "% Cells alive"}, {"measurement": "YFV inhibition [% Cells alive]", "setting": "[2]; 20 μM", "value": "0.95±0.17", "unit": "% Cells alive"}]}
{"smiles": "O=c1[nH]c(NC(c2ccccc2)(c2ccccc2)c2ccccc2)nc2c1ncn2CCC(COC(c1ccccc1)(c1ccccc1)c1ccccc1)COC(c1ccccc1)(c1ccccc1)c1ccccc1", "note": "[22 B‐NHTr, 2‐N,5′,3′‐O‐tri‐trityl penciclovir]", "values": [{"measurement": "D2 inhibition [% Cells alive]", "setting": "[1]; 5 μM", "value": 0, "unit": "% Cells alive"}, {"measurement": "D2 inhibition [% Cells alive]", "setting": "[1]; 10 μM", "value": 0, "unit": "% Cells alive"}, {"measurement": "D2 inhibition [% Cells alive]", "setting": "[1]; 20 μM", "value": 0, "unit": "% Cells alive"}, {"measurement": "YFV inhibition [% Cells alive]", "setting": "[2]; 5 μM", "value": 0, "unit": "% Cells alive"}, {"measurement": "YFV inhibition [% Cells alive]", "setting": "[2]; 10 μM", "value": 0, "unit": "% Cells alive"}, {"measurement": "YFV inhibition [% Cells alive]", "setting": "[2]; 20 μM", "value": "8.09±0.04", "unit": "% Cells alive"}, {"measurement": "CC50", "setting": "Vero cells", "value": "> 20", "unit": "µM"}]}
{"smiles": "Cc1cn([C@H]2C[C@H](O)[C@@H](COC(c3ccccc3)(c3ccccc3)c3ccccc3)O2)c(=O)[nH]c1=O", "note": "[Compound 1, 5′‐O‐trityl‐thymidine]", "values": [{"measurement": "anti-DENV activity (in words)", "setting": "[1]", "value": "no inhibitory properties"}, {"measurement": "D2 inhibition [% Cells alive]", "setting": "[1]; 5 μM", "value": 0, "unit": "% Cells alive"}, {"measurement": "D2 inhibition [% Cells alive]", "setting": "[1]; 10 μM", "value": 0, "unit": "% Cells alive"}, {"measurement": "D2 inhibition [% Cells alive]", "setting": "[1]; 20 μM", "value": 0, "unit": "% Cells alive"}, {"measurement": "YFV inhibition [% Cells alive]", "setting": "[2]; 5 μM", "value": 0, "unit": "% Cells alive"}, {"measurement": "YFV inhibition [% Cells alive]", "setting": "[2]; 10 μM", "value": "1.25±0.03", "unit": "% Cells alive"}]}
